{"source": "patent US20250000998A1", "about": "“MEDICAMENT FOR KILLING TUMOR CELLS” (PhotoQ3 Inc., priority 2021, published 2025)", "test_system": "A549 (human lung cancer cell) xenograft", "test": "Tumor regression effect in tumor-bearing mice by iTAP treatment (A549 cell line xenograft mouse)", "assay_type": "in vivo, BALB/c Slc-nu/nu mice", "conditions": "Laserphyrin 5 mg/kg with 664 nm laser light 30 J/cm^2, IT-Cetuximab 3 mg/kg, alone or combined", "method": "Separately cultured A549 cells were adjusted to 1×10^7 cells/100 μL, and the cells were subcutaneously administered (SC) to the right thigh of 7-week-old male BALB/c Slc-nu/nu mice, and xenograft mice (tumor-bearing mice) were produced. Tumor size was calculated using the following formula.\nTumor volume (mm^3)=major axis (mm)×minor axis (mm)×minor axis (mm)×0.5\nWhen the tumor size of the mice reached an average size of approximately 150 mm^3, the mice were randomly divided into the following groups (n=3). • Condition (1) Control group: No administration • Condition (2) Laserphyrin (5 mg/kg) administration and 664 nm laser light (30 J/cm^2) • irradiation group • Condition (3) IT-Cetuximab (3 mg/kg) administration group • Condition (4) Laserphyrin (5 mg/kg), IT-Cetuximab (3 mg/kg) administration and 664 nm laser light (30 J/cm^2) irradiation group\nIT-Cetuximab was administered intraperitoneally to mice, and 2 days later, Laserphyrin was administered through the tail vein. Furthermore, 2 hours after the administration of Laserphyrin, the tumor site was locally irradiated with a 664 nm laser light.\nTumor size was measured every 3 to 5 days after administration."}
{"smiles": "C=Cc1c(C)c2cc3nc(c(CC(=O)N[C@@H](CC(=O)O)C(=O)O)c4[nH]c(cc5nc(cc1[nH]2)C(C)=C5CC)c(C)c4C(=O)O)[C@@H](CCC(=O)O)[C@@H]3C", "note": "[Laserphyrin, Talaporfin Sodium]", "values": [{"measurement": "macroscopic observation of the tumor", "result": "tumor growth was confirmed macroscopically"}]}
